The values that follow come from patent publication US4496735A, “Certain pyridyloxy-or-thio-phenyl propenoic acid derivatives” (Maruko Seiyaku Co., Ltd., priority 1982, dated 1985).

In data set [1] the test system is platelet aggregation (arachidonic acid), rabbit platelet-rich plasma. Put plainly: Inhibition of Platelet Aggregation induced by arachidonic acid. Type of data set: cell-based. The following applies: for IC50: Oryctolagus cuniculus, Platelet, rabbit PRP, arachidonic acid 100 ug/ml, 37° C.; for inhibitory activity on platelet aggregation induced by arachidonic acid (in words): conclusion in words. As for the experimental part: (§1) Rabbit platelet-rich plasma was pre-incubated at 37° C. for 1 minute and, after adding the test compound, arachidonic acid or collagen was added thereto at a concentration of 100 ug/ml or 10 ug/ml, respectively. The aggregation of platelets was recorded using an aggregometer and shown in Table 2 in terms of IC50 value.

For data set [2], the system named is Arachidonic Acid-Induced Sudden Death. Put plainly: Effect on Arachidonic Acid-Induced Sudden Death in Rabbit. The note with it: for % Protection / Ratio of Mortality/Total Number: 20 mg/kg i.p. 2 hours before 1.4 mg/kg sodium arachidonate (ear vein); for % Protection: 30 minutes; for Ratio of Mortality/Total Number: mortality at 30 minutes; for protection against the arachidonic acid-induced sudden death in rabbits (in words): conclusion in words. Type of data set: in vivo, male rabbits. The source says: The compounds of the present invention having the formula (I) and the pharmaceutically acceptable salts thereof thus obtained have a strong inhibitory activity on thromboxane A2 synthetase. A typical in vivo test method for evaluating compounds which may be useful as a so-called anti-thrombotic agent has been reported in literature and this method comprises determining the prevention of sudden death of rabbits caused by arachidonic acid, as reported in, for example, Agents and Actions, 7, 481 (1977); Pharmacology, 14, 522 (1976); Science, 183, 1085 (1974), etc.
More specifically, sodium arachidonate is administered intravenously to rabbits at a dose of about 1.4 mg/kg to cause a sudden death within a few minutes due to platelet aggregation and lung embolus.
According to the method of Silver et al [Science, 183, 1085 (1974)], 20 mg/kg of the test compound was administered intraperitoneally into male rabbits (8 or 10 rabbits per group), each weighing 2.2 to 2.8 kg, and 2 hours after the administration 1.4 mg/kg of sodium arachidonate was administered to the rabbit from an ear vein. The mortality of the rabbits was then calculated 30 minutes after the administration of sodium arachidonate.

Data set [3] has as its system thromboxane A2 synthesis (thromboxane A2 synthetase). Put plainly: Inhibition of Thromboxane A2 Synthesis (collagen-stimulated rabbit platelet-rich plasma, thromboxane B2 by radioimmunoassay). The note with it: Oryctolagus cuniculus, 5 min, read-out: IC50 on Thromboxane A2 Synthesis. It counts as cell-based. How it is done:
Rabbit platelet-rich plasma (PRP, 6×10^8 platelets/ml) and the test compound was pre-incubated at 37° C. for 5 minutes and, after adding collagen to the mixture at a concentration of 13 ug/ml, the resulting mixture was incubated at 37° C. for 5 minutes. Then, the reaction was terminated by rendering the mixture […] with hydrochloric acid and the amount of thromboxane B2 produced was quantitatively determined by the radioimmunoassay.

The next data set is described as follows: Acute Toxicity. The note with it: mouse, in vivo, ip; ddY male mice; i.p.; mortality one week after administration; Behrens-Karber method. Type of data set: in vivo. How it is done: (§2) The test compound was administered intraperitoneally to ddY male mice weighing 22 to 24 g and LD50 was determined by the Behrens-Karber method [Arch. exp. Path. Pharmak., 177, 379 (1935)] from the mortality one week after administration.

Data set [4] concerns platelet aggregation (collagen), rabbit platelet-rich plasma. Put plainly: Inhibition of Platelet Aggregation induced by collagen. Type of data set: cell-based. The following applies: for IC50: Oryctolagus cuniculus, Platelet, rabbit PRP, collagen 10 ug/ml, 37° C.; for inhibitory activity on platelet aggregation induced by collagen (in words): conclusion in words. How it is done: as §1

The test system of the next data set is ddY male mice. Put plainly: Acute Toxicity. It counts as in vivo. The note with it: i.p., mortality one week after administration, Behrens-Karber method, 10080 min. How it is done:
as §2

Setting [5] is: rabbit PRP, 6×10^8 platelets/ml, collagen 13 ug/ml, 37° C., 5 minutes.

Counter-ions that a name gives are not always drawn. Like-named read-outs stand apart in the source and are kept apart here. Some results are limits rather than exact numbers.

For orientation: IC50 means the concentration that inhibits the measured activity by half. As a reminder, the LD50 is the dose at which mortality reaches 50%. A high value points to lower toxicity. In data set [1], `CC(=Cc1ccc(Oc2cccnc2)cc1)C(=O)NC1CCCCC1.Cl` [Compound E, N-Cyclohexyl-2-methyl-3-[4-(3-pyridyloxy)phenyl]propenamide hydrochloride] had an IC50 of 31 µM. Moreover, in data set [2], the “% Protection” value was 75%, the “Ratio of Mortality/Total Number” value was 2/8 and the “protection against the arachidonic acid-induced sudden death in rabbits (in words)” value is recorded as “strong protection”. Further, in data set [3] (setting [5]), the IC50 amounted to 5.9 µM. This compound also registered a 50% lethal dose (LD50) at 168 h in the data set “Acute Toxicity” of 210 mg/kg. The same compound registered an IC50 in data set [4] of 47 µM.

As to `CCCCCCCCCn1ccnc1` [Compound A, Nonylimidazole, reference compound], in data set [2], the “% Protection” value came out at 50% and the “Ratio of Mortality/Total Number” value is 5/10. In the data set on ddY male mice, this compound came in with an LD50 of 59 mg/kg.

As to `CC(=Cc1ccc(Cc2cccnc2)cc1)C(=O)O.Cl` [Compound C, 2-Methyl-3-[4-(3-pyridylmethyl)phenyl]propenoic acid hydrochloride, reference compound], in data set [1], the half-maximal inhibitory concentration (IC50) was above 1000 µM and the “inhibitory activity on platelet aggregation induced by arachidonic acid (in words)” value is on record as “very weak inhibitory activity”. In data set [3] (setting [5]), the IC50 is 0.22 µM. Besides, in “Acute Toxicity”, the LD50 at 168 h was 220 mg/kg. For the same compound, in data set [4], the IC50 is 420 µM and the “inhibitory activity on platelet aggregation induced by collagen (in words)” value is recorded as “very weak inhibitory activity”.

As to `CC(=Cc1ccc(Oc2cccnc2)cc1)C(N)=O.Cl` [Compound G, 2-Methyl-3-[4-(3-pyridyloxy)phenyl]propenamide hydrochloride], the IC50 turned out to be 335 µM in data set [1], 0.56 µM in data set [3] (setting [5]) and 56 µM in data set [4]. The LD50 at 168 h in “Acute Toxicity” was 310 mg/kg.

With `CC(=Cc1ccc(Sc2ccncc2)cc1)C(=O)O` [Compound F, 2-Methyl-3-[4-(4-pyridylthio)phenyl]propenoic acid hydrochloride], the results for the IC50 in data set [3] (setting [5]) and in data set [4] were 0.31 µM and 22 µM, respectively.

For `Cl.O=C(O)c1ccc(OCCn2ccnc2)cc1` [Compound B, 4-(2-Imidazol-1-ylethoxy)benzoic acid hydrochloride, reference compound], in data set [1], the IC50 is above 1000 µM and the “inhibitory activity on platelet aggregation induced by arachidonic acid (in words)” value was “very weak inhibitory activity”. Moreover, the IC50 in data set [3] was determined as 5.7 µM. In data set [4], the concentration for half-maximal inhibition (IC50) was found to be 400 µM and the “inhibitory activity on platelet aggregation induced by collagen (in words)” value is given as “very weak inhibitory activity”.

For the compound `CC(=Cc1ccc(Oc2cccnc2)cc1)C(=O)O.Cl` [Compound D, 2-Methyl-3-[4-(3-pyridyloxy)phenyl]propenoic acid hydrochloride], in data set [2], the “% Protection” value was 100%, the “Ratio of Mortality/Total Number” value was 0/10 and the “protection against the arachidonic acid-induced sudden death in rabbits (in words)” value is reported as “strong protection”. For the same compound, the IC50 in data set [3] (setting [5]) was found to be 1 µM. For the same compound, the LD50 at 168 h in the data set “Acute Toxicity” stood at 350 mg/kg. The same compound displayed an IC50 in data set [4] of 36 µM.
